Experimental data: patent US11542282B2, “Low affinity poly(AD-ribose) polymerase 1 dependent cytotoxic agents” (THE TRUSTEES OF THE UNIVERSITY OF PENNSYLVANIA, priority 2018, dated 2023)

Tests used:
PARP-1 = PARP-1 (Homo sapiens, UniProt P09874); test: PARP-1 radioligand binding in live OVCAR8 cells ([125I]KX1 competition); conditions: for IC50: radioligand binding in OVCAR8 cells
Method: (§1) Cells were cultured using standard techniques at 37° C. with 5% CO2 and 15% 02. […] Genetically engineered PARP-1 and PARP-2 double knockout mouse embryonic fibroblast (MEF) were used for cell viability studies with wildtype control. All cells were cultured in RPMI 1640 with 10% FBS and 1% penicillin/streptomycin.
The affinity of each compound for the PARP-1 enzyme was evaluated using a radioligand binding method described in Makvandi, A radiotracer strategy to quantify PARP-1 expression in vivo provides a biomarker that can enable patient selection for PARP inhibitor therapy. Cancer Research 2016. Briefly, OVCAR8 ovarian cancer cells were seeded in 96-well Stripwell plates at a density of 40,000 cells/well 24 hrs prior to the study. On the day of study, compounds were diluted in RPMI to concentrations of 100 μM-0.064 nM. […] Reactions were allowed to equilibrate for 1 hr and were then washed with 200 μL of PBS. Wells were separated and counted on an automatic Wizard gamma counter (Perkin Elmer, Waltham Mass.). […] Experiments were repeated three times with adjusting dose concentrations to increase accuracy of IC50 values.
Compounds 10-17 were evaluated for PARP-1 inhibition using a radioligand binding assay protocol with BRCA1 methylated ovarian cancer cells (OVCAR8) as described above. See, Table 3. […] Compared to 1a, oxaazaspiro analogue 1b performed slightly better with scaffold 10b displaying a PARP-1 binding value of 24.9 nM.

OVCAR8 cells = test: Cell viability / cytotoxicity assay in OVCAR8 cells (CellTiter Glo); format: cell-based; conditions: Homo sapiens, OVCAR-8, Table 4
Method: as §1
(§2) Cell viability assays were carried out using four cell lines including OVCAR8, MEF wt, MEF PARP-1 (−/−) KO, and MEF PARP-2 (−/−) KO as described in Makvandi cited above. Briefly, cells were seeded in black wall clear bottom 96-well plates at concentrations of 1,000 cells/well. After 24 h, cells were then treated with concentrations from 100-0.016 μM. Cells were incubated with compounds for 4-7 days and then assayed for cell viability using the luminescent based assay, CellTiter Glo (Promega, Waltham Mass.). Plates were read on an Enspire multimode plate reader (Perkin Elmer). Data was normalized to percent survival at each concentration evaluated by diving the luminescent signal in treated wells vs. the average of vehicle controls. Experiments were repeated three times and all compounds were assayed during each experiment.
Cytotoxicity was then examined in OVCAR8 cells at 1, 10 and 100 μm concentrations as described above. See, FIGS. 1A-1C.
EC50 values of compounds 18-103 were obtained using OVCAR8 cells. See, Table 4.

MEF WT cells = test: Cell viability assay in MEF WT cells; format: cell-based, mouse; conditions: NA = Not applicable, no cell death observed
Method: (§3) Genetically engineered PARP-1 and PARP-2 double knockout mouse embryonic fibroblast (MEF) were used for cell viability studies with wildtype control.
as §2, with “After 24 h, cells were then treated with concentrations from 100-0.016 μM. Cells were incubated with compounds for 4-7 days and then assayed for cell viability using the luminescent based assay, CellTiter Glo (Promega, Waltham Mass.).” left out
(§4) This isogenic model was selected due to the highly conserved nature of the PARP catalytic domain, all-owing investigation in enzyme specificity.

[1] = tested on: MEF PARP-2 (-/-) KO cells; test: Cell viability assay in MEF PARP-2 KO-/- cells; format: cell-based, mouse; conditions: NA = Not applicable, no cell death observed
Method: as §3
as §2, with “After 24 h, cells were then treated with concentrations from 100-0.016 μM. Cells were incubated with compounds for 4-7 days and then assayed for cell viability using the luminescent based assay, CellTiter Glo (Promega, Waltham Mass.).” left out
as §4
The cell cytotoxicity profile of these selected compounds in MEF PARP-2 KO−/− cell lines was then analyzed as described above.

PARP-1, sequence (P09874 whole entry): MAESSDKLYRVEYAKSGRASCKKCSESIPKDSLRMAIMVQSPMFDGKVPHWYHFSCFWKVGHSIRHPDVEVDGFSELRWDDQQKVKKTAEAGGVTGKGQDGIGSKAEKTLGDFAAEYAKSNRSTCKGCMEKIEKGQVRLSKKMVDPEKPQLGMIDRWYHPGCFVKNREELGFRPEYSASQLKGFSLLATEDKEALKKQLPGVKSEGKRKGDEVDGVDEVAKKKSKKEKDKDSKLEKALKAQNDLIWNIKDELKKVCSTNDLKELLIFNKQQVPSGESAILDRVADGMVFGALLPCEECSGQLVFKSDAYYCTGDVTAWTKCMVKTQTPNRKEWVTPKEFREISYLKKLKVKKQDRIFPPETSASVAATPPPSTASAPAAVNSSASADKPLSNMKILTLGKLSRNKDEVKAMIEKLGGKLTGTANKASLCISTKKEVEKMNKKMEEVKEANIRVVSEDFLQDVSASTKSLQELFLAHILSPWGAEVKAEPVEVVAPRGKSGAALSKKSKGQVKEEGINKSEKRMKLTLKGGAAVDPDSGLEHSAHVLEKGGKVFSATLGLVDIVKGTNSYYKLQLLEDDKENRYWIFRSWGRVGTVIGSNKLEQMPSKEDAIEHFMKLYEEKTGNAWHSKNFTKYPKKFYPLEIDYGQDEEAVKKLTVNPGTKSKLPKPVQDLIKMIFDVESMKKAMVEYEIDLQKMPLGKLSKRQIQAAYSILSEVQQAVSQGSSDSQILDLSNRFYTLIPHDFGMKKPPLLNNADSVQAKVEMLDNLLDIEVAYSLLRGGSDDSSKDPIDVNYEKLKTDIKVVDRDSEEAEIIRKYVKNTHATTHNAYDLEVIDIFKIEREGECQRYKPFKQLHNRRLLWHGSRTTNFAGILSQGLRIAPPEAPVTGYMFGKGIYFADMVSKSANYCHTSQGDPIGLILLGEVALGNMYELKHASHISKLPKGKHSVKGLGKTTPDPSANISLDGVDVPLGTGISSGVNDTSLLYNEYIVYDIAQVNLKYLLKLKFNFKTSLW

Compound	EC50 (PARP-1)	EC50 (OVCAR8 cells)	EC50 (MEF WT cells; Mus musculus)	EC50 ([1]; Mus musculus)	also measured
O=C(c1ccc(F)cc1)N1CC2(C1)CN(C(=O)c1cc(Cc3n[nH]c(=O)c4ccccc34)ccc1F)C2 [46 (X = F)]	0.0218 µM	36 µM			
O=C(c1cc(Cc2n[nH]c(=O)c3ccccc23)ccc1F)N1CC2(CCC2)C1 [Compound 10a, 4-(4-Fluoro-3-(2-azaspiro[3.3]heptane-2-carbonyl)benzyl)phthalazin-1(2H)-one]	0.0339 ± 0.0015 µM		48.3 µM	49 µM	
O=C(c1cc(Cc2n[nH]c(=O)c3ccccc23)ccc1F)N1CC2(COC2)C1 [Compound 10b, 4-(4-Fluoro-3-(2-oxa-6-azaspiro[3.3]heptane-6-carbonyl)benzyl)phthalazin-1(2H)-one]	0.0249 µM		52.2 µM	53.3 µM	IC50 (PARP-1): 0.0249 µM
CC(C)(C)OC(=O)N1CC2(C1)CN(C(=O)c1cc(Cc3n[nH]c(=O)c4ccccc34)ccc1F)C2 [Compound 10c, Tert-butyl 6-(2-fluoro-5-((4-oxo-3,4-dihydrophthalazin-1-yl)methyl)benzoyl)-2,6-diazaspiro[3.3]heptane-2-carboxylate]	0.552 µM		31.1 µM	24.7 µM	fold lower PARP-1 affinity compared to the methylene congener (PARP-1; 10c vs 10a, 15b vs 15a): ~16 fold; IC50 (PARP-1): 0.552 µM
O=C(c1cc(Cc2n[nH]c(=O)c3ccccc23)ccc1F)N1CCC12CCC2 [Compound 11a, 4-(4-Fluoro-3-(I-azaspiro[3.3]heptane-1-carbonyl)benzyl)phthalazin-1(2H)-one]					EC50 (MEF WT cells): 48 µM; EC50 [1]: 58.3 µM
CC(C)(C)OC(=O)N1CC2(CCN2C(=O)c2cc(Cc3n[nH]c(=O)c4ccccc34)ccc2F)C1 [Compound 11b, Tert-butyl 1-(2-fluoro-5-((4-oxo-3,4-dihydrophthalazin-1-yl)methyl)benzoyl)-1,6-diazaspiro[3.3]heptane-6-carboxylate]			42.9 µM	35.8 µM	
O=C(C1CC1)N1CC2(CCN2C(=O)c2cc(Cc3n[nH]c(=O)c4ccccc34)ccc2F)C1 [Compound 11d, 4-(3-(6-(Cyclopropanecarbonyl)-1,6-diazaspiro[3.3]heptane-1-carbonyl)-4-fluorobenzyl)phthalazin-1(2H)-one]			53.2 µM	46.7 µM	
O=C(c1cc(Cc2n[nH]c(=O)c3ccccc23)ccc1F)N1CC2(CCN(C(=O)C3CC3)CC2)C1 [Compound 12d, 4-(3-(7-(Cyclopropanecarbonyl)-2,7-diazaspiro[3.5]nonane-2-carbonyl)-4-fluorobenzyl)phthalazin-1(2H)-one]	0.1 µM		49.3 µM	57.2 µM	
O=C(c1cc(Cc2n[nH]c(=O)c3ccccc23)ccc1F)N1CCC12CCCCC2 [Compound 13a, 4-(4-Fluoro-3-(1-azaspiro[3.5]nonane-1-carbonyl)benzyl)phthalazin-(2H)-one]	0.284 ± 0.0012 µM		32.6 µM	78.8 µM	
CC(C)(C)OC(=O)N1CCC2(CC1)CCN2C(=O)c1cc(Cc2n[nH]c(=O)c3ccccc23)ccc1F [Compound 13b, Tert-butyl 1-(2-fluoro-5-((4-oxo-3,4-dihydrophthalazin-1-yl)methyl)benzoyl)-1,7-diazaspiro[3.5]nonane-7-carboxylate]	2.97 µM		~23 µM	33.2 µM	EC50 (MEF WT cells): 23.3 µM
O=C(C1CC1)N1CCC2(CC1)CCN2C(=O)c1cc(Cc2n[nH]c(=O)c3ccccc23)ccc1F [Compound 13d, 4-(3-(7-(Cyclopropanecarbonyl)-1,7-diazaspiro[3.5]nonane-1-carbonyl)-4-fluorobenzyl)phthalazin-1(2H)-one]	0.431 µM		47.5 µM	44.4 µM	
O=C(c1cc(Cc2n[nH]c(=O)c3ccccc23)ccc1F)N1CCC2(CCC2)C1 [Compound 14a, 4-(4-Fluoro-3-(6-azaspiro[3.4]octane-6-carbonyl)benzyl)phthalazin-1(2H)-one]	0.0324 ± 0.0011 µM		45.2 µM	54.7 µM	
CC(C)(C)OC(=O)N1CC2(CCN(C(=O)c3cc(Cc4n[nH]c(=O)c5ccccc45)ccc3F)C2)C1 [Compound 14b]	1.19 µM		29.2 µM	31.8 µM	
O=C(c1cc(Cc2n[nH]c(=O)c3ccccc23)ccc1F)N1CCC2(CCCC2)C1 [Compound 15a, 4-(4-Fluoro-3-(2-azaspiro[4.4]nonane-2-carbonyl)benzyl)phthalazin-1(2H)-one]	0.0514 ± 0.0011 µM		31.7 µM	55.5 µM	
O=C(c1cc(Cc2n[nH]c(=O)c3ccccc23)ccc1F)N1CCC2(CCN(C(=O)C3CC3)CC2)C1 [Compound 16d, 4-(3-(8-(Cyclopropanecarbonyl)-2,8-diazaspiro[4.5]decane-2-carbonyl)-4-fluorobenzyl)phthalazin-1(2H)-one]	0.225 µM		41.6 µM	61 µM	
O=C(c1cc(Cc2n[nH]c(=O)c3ccccc23)ccc1F)N1CCC2(CCCCC2)CC1 [Compound 17a, 4-(4-Fluoro-3-(3-azaspiro[5.5]undecane-3-carbonyl)benzyl)phthalazin-1(2H)-one]	0.0571 ± 0.0012 µM		41.3 µM	41.3 µM	
O=C(c1cc(Cc2n[nH]c(=O)c3ccccc23)ccc1F)N1CCC2(CCNCC2)CC1 [Compound 17c, 4-(4-Fluoro-3-(3,9-diazaspiro[5.5]undecane-3-carbonyl)benzyl)phthalazin-1(2H)-one]	0.234 µM			59.7 µM	enzyme affinity in contrast to respective boc-protected analogue (PARP-1; free-amine derivatives): slight increase in enzyme affinity
CO[C@H]1C[C@@H](NC(=O)c2cc(Cc3n[nH]c(=O)c4ccccc34)ccc2F)C1 [Compound 19]	0.0208 ± 0.0011 µM	17.1 ± 1.2 µM			
CO[C@H]1C[C@H](NC(=O)c2cc(Cc3n[nH]c(=O)c4ccccc34)ccc2F)C1 [Compound 20]		72.2 µM			
COC1CCC(NC(=O)c2cc(Cc3n[nH]c(=O)c4ccccc34)ccc2F)C1 (stereo not drawn) [Compound 21]	0.0496 ± 0.0011 µM	17 ± 1.2 µM			
COC1CCC(NC(=O)c2cc(Cc3n[nH]c(=O)c4ccccc34)ccc2F)CC1 (stereo not drawn) [Compound 22]	0.2263 ± 0.0011 µM	16.2 ± 1.2 µM			
COC1CN(C(=O)c2cc(Cc3n[nH]c(=O)c4ccccc34)ccc2F)C1 [Compound 23]	0.00827 ± 0.0011 µM	71.5 ± 1.2 µM			
COC1CCN(C(=O)c2cc(Cc3n[nH]c(=O)c4ccccc34)ccc2F)C1 (stereo not drawn) [Compound 24]	0.00421 ± 0.0011 µM	37.3 ± 1.2 µM			
COC1CCCN(C(=O)c2cc(Cc3n[nH]c(=O)c4ccccc34)ccc2F)CC1 (stereo not drawn) [Compound 25]	0.00474 ± 0.0011 µM	20.2 ± 1.3 µM			
O=C(c1cc(Cc2n[nH]c(=O)c3ccccc23)ccc1F)N1CC(OCCF)C1 [Compound 26, 4-(4-fluoro-3-(3-(2-fluoroethoxy)azetidine-1-carbonyl)benzyl)phthalazin-1(2H)-one]	0.00754 ± 0.0011 µM	74.1 ± 1.3 µM			
O=C(c1cc(Cc2n[nH]c(=O)c3ccccc23)ccc1F)N1CC[C@@H](OCCF)C1 [Compound 28, (R)-4-(4-fluoro-3-(3-(2-fluoroethoxy)pyrrolidine-1-carbonyl)benzyl)phthalazin-1(2H)-one]	0.0101 ± 0.0011 µM	30.9 ± 1.2 µM			
O=C(c1cc(Cc2n[nH]c(=O)c3ccccc23)ccc1F)N1CC[C@H](OCCF)C1 [Compound 29, (S)-4-(4-fluoro-3-(3-(2-fluoroethoxy)pyrrolidine-1-carbonyl)benzyl)phthalazin-1(2H)-one]	0.00688 µM	56.6 µM			
O=C(c1cc(Cc2n[nH]c(=O)c3ccccc23)ccc1F)N1CCC(OCCF)CC1 [Compound 31, 4-(4-fluoro-3-(4-(2-fluoroethoxy)piperidine-1-carbonyl)benzyl)phthalazin-1(2H)-one]	0.00395 ± 0.0012 µM	17.1 ± 1.2 µM			
